Measurements published in ChEMBL document CHEMBL1201862, “PubChem BioAssay data set” (2004).
The source made the active and inactive calls.

Columns and labels:
[1] = biological target: Cytochrome P450 2C19 (Homo sapiens, UniProt P33261); experiment: Cytochrome panel assay with activity outcomes. Panel member name: p450-cyp2c19 Compounds with AC50 equal or less than 10 uM are considered active; format: functional
[2] = biological target: Cytochrome P450 3A4 (Homo sapiens, UniProt P08684);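 further: CYP3A4 tested as one member of a cytochrome P450 panel screen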
Chain of Cytochrome P450 3A4 (P08684 whole entry): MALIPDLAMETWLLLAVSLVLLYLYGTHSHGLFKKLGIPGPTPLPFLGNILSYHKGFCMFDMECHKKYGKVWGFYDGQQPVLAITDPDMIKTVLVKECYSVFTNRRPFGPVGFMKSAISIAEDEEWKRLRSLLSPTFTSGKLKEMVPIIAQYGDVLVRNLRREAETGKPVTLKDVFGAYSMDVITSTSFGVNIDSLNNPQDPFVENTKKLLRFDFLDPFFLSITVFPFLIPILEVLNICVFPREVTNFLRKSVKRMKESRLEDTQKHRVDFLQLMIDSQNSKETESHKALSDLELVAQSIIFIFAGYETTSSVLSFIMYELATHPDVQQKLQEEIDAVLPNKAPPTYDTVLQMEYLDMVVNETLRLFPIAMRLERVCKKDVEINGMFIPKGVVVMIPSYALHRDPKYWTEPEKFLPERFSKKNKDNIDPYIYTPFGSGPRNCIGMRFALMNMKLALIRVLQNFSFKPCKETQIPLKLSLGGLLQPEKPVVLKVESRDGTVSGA

[3] = biological target: T1, Heat shock factor protein 1 (Mus musculus, UniProt P38532); experiment: enhancement of HSF1-driven luciferase signal – cell-based, NIH3T3, luminescence, dose retest, confirmation (AID 435004); format: functional;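 further: stress induced by proteasome inhibitor MG132 added 30 min after compound; luciferase reporter driven by HSF1 response element in NIH3T3 cells; actives raise luminescence as potentiators of the MG132 stress response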
T1 sequence (P38532 whole entry): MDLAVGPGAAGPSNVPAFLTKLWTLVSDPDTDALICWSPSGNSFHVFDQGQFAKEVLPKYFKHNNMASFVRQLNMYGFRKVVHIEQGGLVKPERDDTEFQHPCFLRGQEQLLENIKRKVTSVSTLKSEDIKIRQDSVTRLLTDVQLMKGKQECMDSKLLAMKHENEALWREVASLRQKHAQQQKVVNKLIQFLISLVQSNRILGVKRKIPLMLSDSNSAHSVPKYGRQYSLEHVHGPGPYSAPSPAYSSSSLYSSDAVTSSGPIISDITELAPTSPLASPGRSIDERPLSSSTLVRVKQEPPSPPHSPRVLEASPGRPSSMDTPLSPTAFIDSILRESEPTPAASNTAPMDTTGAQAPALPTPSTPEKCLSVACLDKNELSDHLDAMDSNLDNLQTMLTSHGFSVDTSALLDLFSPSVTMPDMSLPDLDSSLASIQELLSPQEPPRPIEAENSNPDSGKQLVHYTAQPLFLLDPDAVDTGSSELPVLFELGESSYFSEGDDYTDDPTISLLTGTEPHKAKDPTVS

[4] = Luminescence Cell-Based Dose Response HTS to Identify Inhibitors of 5'UTR Stem-Loop Driven Prion Protein mRNA Translation in H4 Neuroglioblastoma Cells. [Related pubchem assays: 1827 (Project Summary), 1813 (Primary HTS)]; format: functional
[5] = luciferase reporter signal suppression in cells – H4 neuroglioma cells, luminescence, dose response (AID 1990); format: functional, cell-based
[6] = alpha-synuclein stem-loop luciferase translation blockers – H4 neuroglioma cells, luminescence, confirmation (AID 1988); format: functional, cell-based
[7] = viability of uninfected HEp-2 cells – cell-based, HTS, cytotoxicity control for RSV inhibitor project, dose response (AID 2410); format: functional; details: human respiratory syncytial virus
[8] = Trypanosoma cruzi growth suppression in host cells – NIH3T3 host cells, beta-gal luminescence, confirmation (AID 2044); format: functional, cell-based;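 further: intracellular parasites grown in NIH/3T3 mouse fibroblasts as host cells; luminescent beta-galactosidase reporter signal from transgenic T. cruzi replicating inside host cells; inhibitors lower the luminescence signal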
[9] = NIH3T3 cell viability loss – ATP luminescence, mouse fibroblasts, counter-screen, dose response (AID 2010); format: functional, cell-based;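 further: cells exposed to compound for about 90 hours before reading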
[10] = biological target: T2, Replicative DNA helicase DnaB (Mycobacterium tuberculosis, UniProt P9WMR3); experiment: DnaB intein splicing inhibitors, dose response, biochemical, cell-free fluorescence (AID 449749); format: functional
T2 sequence (P9WMR3 whole entry): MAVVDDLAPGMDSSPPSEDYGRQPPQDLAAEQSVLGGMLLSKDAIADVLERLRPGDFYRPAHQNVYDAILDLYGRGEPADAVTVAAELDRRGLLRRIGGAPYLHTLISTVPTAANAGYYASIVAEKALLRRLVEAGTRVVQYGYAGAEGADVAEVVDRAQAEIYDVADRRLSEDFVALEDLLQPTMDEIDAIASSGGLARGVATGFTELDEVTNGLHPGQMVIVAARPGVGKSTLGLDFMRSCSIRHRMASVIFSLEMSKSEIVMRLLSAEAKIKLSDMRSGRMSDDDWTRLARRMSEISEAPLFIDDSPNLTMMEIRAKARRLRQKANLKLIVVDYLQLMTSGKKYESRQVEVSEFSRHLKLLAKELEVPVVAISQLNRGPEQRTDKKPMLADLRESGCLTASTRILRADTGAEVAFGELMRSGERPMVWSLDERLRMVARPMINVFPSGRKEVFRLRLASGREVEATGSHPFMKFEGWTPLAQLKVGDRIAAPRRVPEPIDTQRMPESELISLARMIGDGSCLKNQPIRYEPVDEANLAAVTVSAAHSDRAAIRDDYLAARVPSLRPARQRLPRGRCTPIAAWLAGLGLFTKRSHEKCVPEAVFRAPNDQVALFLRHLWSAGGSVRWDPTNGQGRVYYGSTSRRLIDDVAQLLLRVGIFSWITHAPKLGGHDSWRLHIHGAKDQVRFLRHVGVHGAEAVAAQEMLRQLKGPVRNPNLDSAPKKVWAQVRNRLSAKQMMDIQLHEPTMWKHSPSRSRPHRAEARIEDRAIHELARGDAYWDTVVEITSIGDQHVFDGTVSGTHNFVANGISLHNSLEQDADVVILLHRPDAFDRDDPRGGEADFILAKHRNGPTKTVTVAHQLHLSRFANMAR

[11] = biological target: T3, Protein RecA (Mycobacterium tuberculosis, UniProt P9WHJ3); experiment: Fluorescence Cell-Free Homogeneous Dose Retest to Identify Inhibitors of RecA-Intein Splicing Activity. [Related pubchem assays (depositor defined):AID2097, AID2223, AID489010, AID492950]; format: functional
T3 sequence (P9WHJ3 whole entry): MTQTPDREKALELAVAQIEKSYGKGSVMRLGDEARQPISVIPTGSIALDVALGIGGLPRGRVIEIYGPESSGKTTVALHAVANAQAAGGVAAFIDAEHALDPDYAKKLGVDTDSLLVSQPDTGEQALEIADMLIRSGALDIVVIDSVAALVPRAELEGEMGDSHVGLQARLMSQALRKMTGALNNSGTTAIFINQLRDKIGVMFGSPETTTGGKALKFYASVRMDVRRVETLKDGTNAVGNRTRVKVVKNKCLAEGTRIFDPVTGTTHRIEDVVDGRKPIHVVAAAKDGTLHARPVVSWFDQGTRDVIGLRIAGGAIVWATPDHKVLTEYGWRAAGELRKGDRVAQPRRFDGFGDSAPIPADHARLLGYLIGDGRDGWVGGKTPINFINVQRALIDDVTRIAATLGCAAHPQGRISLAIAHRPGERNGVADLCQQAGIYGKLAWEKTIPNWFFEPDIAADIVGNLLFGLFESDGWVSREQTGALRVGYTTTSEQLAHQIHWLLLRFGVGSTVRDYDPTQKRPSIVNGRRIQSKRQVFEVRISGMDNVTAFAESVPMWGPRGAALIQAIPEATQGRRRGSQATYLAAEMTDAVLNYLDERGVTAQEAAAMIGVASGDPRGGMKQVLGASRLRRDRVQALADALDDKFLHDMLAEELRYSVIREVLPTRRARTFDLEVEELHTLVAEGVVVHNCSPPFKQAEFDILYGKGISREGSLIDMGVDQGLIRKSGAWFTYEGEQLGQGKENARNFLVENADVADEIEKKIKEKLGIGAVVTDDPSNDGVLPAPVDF

[12] = Luminescence Cell-Based Dose Confirmation HTS to Identify Inhibitors of Platelet Dense Granule Release. [Related pubchem assays: 1663 (Primary HTS), 1678 (Summary of Project)]; format: functional
[13] = biological target: Luciferin 4-monooxygenase (Photinus pyralis, UniProt P08659); experiment: inhibition of purified Photinus pyralis luciferase – biochemical, luminescence, dose response (AID 1891)
Chain of Luciferin 4-monooxygenase (P08659 whole entry): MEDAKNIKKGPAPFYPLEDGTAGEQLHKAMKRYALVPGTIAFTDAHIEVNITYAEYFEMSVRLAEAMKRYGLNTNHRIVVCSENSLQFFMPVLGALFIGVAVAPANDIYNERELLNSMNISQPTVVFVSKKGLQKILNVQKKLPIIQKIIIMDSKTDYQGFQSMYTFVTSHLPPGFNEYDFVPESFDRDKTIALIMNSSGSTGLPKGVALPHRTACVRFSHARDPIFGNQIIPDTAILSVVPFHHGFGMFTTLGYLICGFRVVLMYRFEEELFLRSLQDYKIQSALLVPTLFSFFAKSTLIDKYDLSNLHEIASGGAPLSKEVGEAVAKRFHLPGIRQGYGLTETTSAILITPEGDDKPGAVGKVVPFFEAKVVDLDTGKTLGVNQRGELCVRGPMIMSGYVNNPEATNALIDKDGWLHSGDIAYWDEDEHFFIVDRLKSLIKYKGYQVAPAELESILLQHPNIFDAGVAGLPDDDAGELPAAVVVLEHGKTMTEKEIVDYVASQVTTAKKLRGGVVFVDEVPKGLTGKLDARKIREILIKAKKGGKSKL

[14] = test system: INS1; experiment: INS-1E survival protection against cytokine death – cell-based, luminescence, retest, dose response (AID 449756); format: functional; details: Rattus norvegicus;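 further: cell death triggered by IL-1 beta plus TNF-alpha plus IFN-gamma mixture; protective hits raise ATP signal compared with cytokine alone wells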
[15] = biological target: T4, Cytochrome P450 1A2 (Homo sapiens, UniProt P05177)
T4 sequence (P05177 whole entry): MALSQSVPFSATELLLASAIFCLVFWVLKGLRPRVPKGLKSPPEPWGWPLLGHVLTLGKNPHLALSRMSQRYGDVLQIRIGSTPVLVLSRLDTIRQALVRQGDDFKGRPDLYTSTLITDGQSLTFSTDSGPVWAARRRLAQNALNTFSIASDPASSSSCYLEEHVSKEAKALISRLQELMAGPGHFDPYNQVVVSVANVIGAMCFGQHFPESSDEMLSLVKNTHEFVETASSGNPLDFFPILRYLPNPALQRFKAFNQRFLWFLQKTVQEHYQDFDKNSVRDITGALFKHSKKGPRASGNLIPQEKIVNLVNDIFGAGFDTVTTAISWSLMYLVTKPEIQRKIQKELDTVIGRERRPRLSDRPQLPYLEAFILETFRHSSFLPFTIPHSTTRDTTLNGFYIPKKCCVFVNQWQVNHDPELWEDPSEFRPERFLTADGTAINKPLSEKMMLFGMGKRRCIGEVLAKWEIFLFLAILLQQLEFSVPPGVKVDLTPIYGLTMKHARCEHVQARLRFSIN

[16] = biological target: Cytochrome P450 2D6 (Homo sapiens, UniProt P10635);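 further: CYP2D6 member of a cytochrome P450 panel assay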
Chain of Cytochrome P450 2D6 (P10635 whole entry): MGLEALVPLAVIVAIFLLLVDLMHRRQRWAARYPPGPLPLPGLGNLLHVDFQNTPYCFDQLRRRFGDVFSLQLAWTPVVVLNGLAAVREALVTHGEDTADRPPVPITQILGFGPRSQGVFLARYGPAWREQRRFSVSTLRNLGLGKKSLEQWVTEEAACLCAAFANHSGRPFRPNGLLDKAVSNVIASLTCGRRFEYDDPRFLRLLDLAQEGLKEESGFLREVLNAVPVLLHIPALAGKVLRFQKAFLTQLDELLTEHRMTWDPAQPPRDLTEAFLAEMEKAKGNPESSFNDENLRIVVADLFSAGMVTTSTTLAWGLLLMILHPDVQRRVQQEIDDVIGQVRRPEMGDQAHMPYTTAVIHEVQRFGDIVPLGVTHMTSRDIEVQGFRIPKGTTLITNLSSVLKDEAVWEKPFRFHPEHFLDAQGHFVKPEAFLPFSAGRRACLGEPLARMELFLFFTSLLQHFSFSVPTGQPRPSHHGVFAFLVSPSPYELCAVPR

Chain of Cytochrome P450 2C19 (P33261 whole entry): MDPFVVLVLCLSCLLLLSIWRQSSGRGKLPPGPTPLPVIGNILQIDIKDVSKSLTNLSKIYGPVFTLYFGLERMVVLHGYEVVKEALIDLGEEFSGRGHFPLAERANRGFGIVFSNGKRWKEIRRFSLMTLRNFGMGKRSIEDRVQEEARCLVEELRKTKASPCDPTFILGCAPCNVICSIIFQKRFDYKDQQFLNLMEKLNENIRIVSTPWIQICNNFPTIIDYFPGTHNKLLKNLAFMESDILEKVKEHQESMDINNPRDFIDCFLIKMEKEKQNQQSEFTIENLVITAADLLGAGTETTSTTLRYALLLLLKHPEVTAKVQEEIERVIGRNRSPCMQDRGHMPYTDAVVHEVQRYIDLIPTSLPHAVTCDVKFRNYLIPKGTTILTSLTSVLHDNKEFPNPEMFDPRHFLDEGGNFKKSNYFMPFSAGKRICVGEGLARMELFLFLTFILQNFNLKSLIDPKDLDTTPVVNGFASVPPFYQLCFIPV

## C=CCOc1ccc2cccc(/C=N/NC(=O)c3cc4cc([N+](=O)[O-])ccc4s3)c2c1
[1]; read-out: AC50
  AC50: 0.398 µM (inconclusive)
[2]
  AC50: 2.51 µM (inconclusive)

## CC(=O)Nc1nnc(SCC(=O)c2ccc(F)cc2)s1
[3]
  EC50: 67.4 µM (active)

## CC(=O)c1ccc(-c2ccccc2[C@H]2[C@H]3C=CC[C@@H](C)[C@@H]3C(=O)N2Cc2ccccc2)cc1
[4]
  EC50: > 120 µM (not active)
[5]
  EC50: 30 µM (active)
[6]
  EC50: 22.4 µM (active)

## Cc1sc2nc(CSc3cccc(C(F)(F)F)c3)nc(O)c2c1C
[3]
  EC50: > 260 µM (inactive)

## CC(C)=C1C(=O)C(c2ccccc2)=C2CN3C(=O)N(CCc4ccccc4)C(=O)[C@]3(Cc3ccccc3)[C@H]21
[1]; read-out: AC50
  AC50: 25.1 µM (inconclusive)
[2]
  AC50: 5.01 µM (inconclusive)

## COCCCNC(=O)CCn1c(=O)c2ccccc2n(CC(=O)Nc2cc(Cl)ccc2C)c1=O
[3]
  EC50: > 260 µM (inactive)

## COP(=O)(OC)c1nc(-c2cccc3ccccc23)oc1NCc1ccccc1
[3]
  EC50: > 260 µM (inactive)

## CCOc1cc(/C=N/NC(=O)Cn2nc([N+](=O)[O-])cc2C)cc(Br)c1OCc1ccccc1C
[3]
  EC50: > 260 µM (inactive)
[7]
  CC50: 8.17 µM (active)
[8]
  EC50: 2.32 µM (active)
[9]
  EC50: > 60 µM (not active)

## Cc1c(/C=N/NC(=O)c2ccc(Br)o2)cnn1C
[3]
  EC50: > 260 µM (inactive)

## COc1ccc(C(=O)Nc2ccc(O)c3ccccc23)cc1OC
[10]
  AC50: 82 µM (active)
[11]
  EC50: 8.4 µM (active)

## CC1(C)CC(=O)C2=C(C1)N(Cc1ccccc1)C(=O)C2(O)C(F)(F)F (configuration not stated)
[12]
  EC50: > 112 µM (not active)
[13]
  EC50: > 112 µM (not active)
[2]
  AC50: 20 µM (inconclusive)

## Cc1cc(Oc2ccc(=O)n(C)n2)nc(SCc2ccccc2)n1
[4]
  EC50: 16.6 µM (active)
[5]
  EC50: > 120 µM (not active)
[6]
  EC50: 22.1 µM (active)

## Cc1cc(C)nc(N/N=C2/CCCC/C2=C\c2ccccc2)n1
[14]
  AC50: 0.397 µM (active)

## COc1ccccc1NC(=O)C1=C(C)N=C2CC(c3ccc(OC)c(OC)c3)CC(O)=C2C1c1coc2ccccc2c1=O (configuration not stated)
[3]
  EC50: 34.5 µM (active)

## COCCn1c(=O)[nH]c2cc(C(=O)N3CCN(c4cccc(Cl)c4)CC3)ccc2c1=O
[3]
  EC50: > 260 µM (inactive)

## N#CC1=C(N)Oc2[nH]nc(-c3ccncc3)c2C1c1ccsc1 (configuration not stated)
[10]
  AC50: 13.4 µM (active)
[11]
  EC50: 3.27 µM (active)

## COc1cccc(/C=N\NC(=O)C2C(=O)NCC2c2ccccc2)c1O (configuration not stated)
[15]
  AC50: 17.8 µM (inconclusive)
[1]; read-out: AC50
  AC50: 39.8 µM (inconclusive)
[2]
  AC50: 25.1 µM (inconclusive)

## CCCCCn1c(Sc2ccccc2)nc2c1c(=O)[nH]c(=O)n2C
[4]
  EC50: 20.1 µM (active)
[5]
  EC50: 5.33 µM (active)
[6]
  EC50: 16.9 µM (active)

## N#CC1=C(N)Oc2[nH]nc(-c3cccs3)c2C1c1ccccc1C(=O)O (configuration not stated)
[10]
  AC50: 2.69 µM (active)
[11]
  EC50: 1.56 µM (active)

## COc1cc2c(cc1OC)C(CCN)=NCC2
[15]
  AC50: 5.01 µM (inconclusive)
[1]
  AC50: inconclusive
[2]
  AC50: 3.98 µM (inconclusive)
[16]
  AC50: 1.58 µM (inconclusive)

## CCn1c(-c2ccccc2)c(C(=O)CCl)c2ccccc21
[10]
  AC50: 3.27 µM (active)
[11]
  EC50: 1.05 µM (active)
[3]
  EC50: 7.71 µM (active)
[8]
  EC50: 1.42 µM (active)
[9]
  EC50: 4.12 µM (active)
[14]
  AC50: 7.82 µM (active)

## CCC(=NNC(=O)c1ccc2c(c1)nc(C)n2CC)c1cc(F)ccc1O
[14]
  AC50: 2.32 µM (active)

## C/C(=N\N1C(=O)c2ccccc2NC1c1ccco1)c1ccccc1O (configuration not stated)
[8]
  EC50: 1.66 µM (active)
[9]
  EC50: 4.99 µM (active)
[14]
  AC50: 2.21 µM (active)

## O=C(Nc1ccc(F)cc1F)N1CCCN(CCOc2ccccc2)CC1
[14]
  AC50: 13.3 µM (active)

## CC(=O)Nc1ccccc1NC(=O)C/C(C)=N/NC(=O)C(=O)N1CCCCC1
[10]
  AC50: 5.84 µM (active)
[11]
  EC50: 0.891 µM (active)

## O=C(c1ccc(F)c(S(=O)(=O)N2CCOCC2)c1)N1CCN(c2ccc(F)cc2)CC1
[14]
  AC50: > 260 µM (inactive)

## Cc1cc2oc3c(c(=O)c2cc1C)C(c1ccc(C(C)C)cc1)N(CCCN1CCOCC1)C3=O (configuration not stated)
[3]
  EC50: > 260 µM (inactive)

## Cc1ccc(C(=O)Oc2ccc([N+](=O)[O-])cc2)cc1S(=O)(=O)N1CCCCCC1
[10]
  AC50: 3.4 µM (active)
[11]
  EC50: 4.99 µM (active)

## O=C(Cc1cc(O)n[nH]1)N/N=C/c1c(F)cccc1Cl
[10]
  AC50: 1.87 µM (active)
[11]
  EC50: 1.53 µM (active)

## O=C(Nc1cccc(Cl)c1)Nn1cnnc1
[15]
  AC50: 3.16 µM (inconclusive)
[2]
  AC50: 3.16 µM (inconclusive)
